According to US5646249A, “Isolation and characterization of a novel chaperone protein” (The United States of America as represented by the …, priority 1994, dated 1997):

Target: T1, human STCH, GST-STCH fusion protein representing STCH codons 4-471 (SEQ ID NO: 2) (Homo sapiens, UniProt P48723)
T1 construct: near full-length GST-STCH fusion protein, representing STCH codons 4-471; made in house; host or cells: E. coli HB101
T1 sequence (P48723 4-471): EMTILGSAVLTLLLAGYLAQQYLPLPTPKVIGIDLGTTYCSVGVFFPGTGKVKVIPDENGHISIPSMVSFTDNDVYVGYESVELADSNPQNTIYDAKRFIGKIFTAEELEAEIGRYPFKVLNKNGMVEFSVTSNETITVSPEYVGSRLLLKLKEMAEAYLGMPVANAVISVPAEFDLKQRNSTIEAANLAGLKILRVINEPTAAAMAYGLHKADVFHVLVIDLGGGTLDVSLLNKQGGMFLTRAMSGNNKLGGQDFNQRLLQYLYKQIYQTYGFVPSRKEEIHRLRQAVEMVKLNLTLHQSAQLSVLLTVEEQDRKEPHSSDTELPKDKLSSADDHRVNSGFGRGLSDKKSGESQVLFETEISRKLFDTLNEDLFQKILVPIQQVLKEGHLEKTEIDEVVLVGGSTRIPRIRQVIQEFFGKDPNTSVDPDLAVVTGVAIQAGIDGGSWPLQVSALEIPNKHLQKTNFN
Experiment: ATPase assay of purified GST-STCH fusion protein
Format: biochemical
Conditions: read-out: Km for the unstimulated STCH ATPase (ATP); unstimulated (no peptide), 37° C., recombinant GST-STCH codons 4-471
Method: Inspection of the primary amino acid sequence of the STCH product predicts a functional ATPase molecule. ATPase activity was tested using a GST -Stch plasmid that encoded a functional fusion protein including STCH codons 4-471 (See Table II and SEQ ID NO: 1). A preferred strategy for preparing this fusion protein is provided in Example III and a preferred strategy for performing ATPase assays is provided in Example VI. To exclude contaminating sources of ATPase, the GST leader peptide and the GST-STCH affinity-purified fusion proteins were eluted off glutathione--Sepharose beads, then purified by anion-exchange chromatography (mono Q) and the protein composition of the column fractions was analyzed by SDS--PAGE. The peak ATPase activity of the GST --STCH product coincided with fractions 11 and 12. While no measurable ATPase activity was detected in fractions 11 and 12 from the GST leader sequence. These fractions were pooled from the GST--STCH sample and ATPase activity was measured in the presence or absence of two different peptides. […] The Km for the unstimulated STCH ATPase was 2-3 μM ATP and the measured ATPase activity was linear with respect to time and concentration over the range tested. […]

Question: How did the Km turn out when Nc1ncnc2c1ncn2[C@@H]1O[C@H](COP(=O)(O)OP(=O)(O)OP(=O)(O)O)[C@@H](O)[C@H]1O [ATP] was run?
Answer: 2 to 3 µM
